Experimental data published in the NIST ThermoML archive (doi:10.1016/j.jct.2010.04.018).

Experiment: cn = amount concentration of the nth substance listed, in mol/dm3
Details: 101 kPa, Liquid; for speed of sound: Sing-around technique in a fixed-path interferometer; for mass density: Vibrating tube method

Oc1ccccc1O [1,2-benzenediol] + O
Details	mass density, 283.15 K [kg/m3]	mass density, 293.15 K [kg/m3]	mass density, 298.15 K [kg/m3]	mass density, 303.15 K [kg/m3]	mass density, 313.15 K [kg/m3]	speed of sound, 283.15 K [m/s]	speed of sound, 293.15 K [m/s]	speed of sound, 298.15 K [m/s]	speed of sound, 303.15 K [m/s]	speed of sound, 313.15 K [m/s]
c1 = 0.0354	1000.62	999.093	997.92	996.509	993.058	1449.9	1484.1	1498.2	1510.5	1529.9
c1 = 0.1697	1003.9	1002.24	1001.01	999.543	995.992	1457.9	1490.6	1504	1515.7	1534.1
c1 = 0.346	1008.13	1006.3	1004.99	1003.46	999.774	1467.9	1498.7	1511.4	1522.2	1539.2
c1 = 0.4721	1011.09	1009.14	1007.78	1006.19	1002.41	1474.5	1504.1	1516.2	1526.6	1542.6
c1 = 0.5008	1011.78	1009.79	1008.42	1006.82	1003.02	1476.5	1505.4	1517.3	1527.5	1543.4
c1 = 0.6589	1015.4	1013.26	1011.82	1010.15	1006.23	1484	1511.8	1523	1532.7	1547.3
c1 = 0.7524	1017.53	1015.29	1013.81	1012.11	1008.12	1488.5	1515.4	1526.3	1535.5	1549.5

Oc1cccc(O)c1 [1,3-benzenediol] + O
Details	mass density, 283.15 K [kg/m3]	mass density, 293.15 K [kg/m3]	mass density, 298.15 K [kg/m3]	mass density, 303.15 K [kg/m3]	mass density, 313.15 K [kg/m3]	speed of sound, 283.15 K [m/s]	speed of sound, 293.15 K [m/s]	speed of sound, 298.15 K [m/s]	speed of sound, 303.15 K [m/s]	speed of sound, 313.15 K [m/s]
c1 = 0.0479	1000.93	999.387	998.206	996.776	993.338	1449.5	1483.7	1497.8	1510	1529.5
c1 = 0.101	1002.08	1000.51	999.325	997.875	994.393	1451.5	1485.2	1499.1	1511.2	1530.3
c1 = 0.1786	1003.79	1002.17	1000.95	999.476	995.941	1454.3	1487.3	1500.9	1512.8	1531.4
c1 = 0.3402	1007.38	1005.58	1004.28	1002.77	999.12	1459.9	1491.6	1504.7	1515.9	1533.7
c1 = 0.4522	1009.8	1007.9	1006.56	1005	1001.29	1463.5	1494.5	1507.1	1518	1535.2
c1 = 0.5654	1012.22	1010.22	1008.84	1007.25	1003.46	1467.2	1497.3	1509.6	1520.1	1536.6
c1 = 0.7623	1016.36	1014.19	1012.74	1011.08	1007.17	1473.5	1502	1513.7	1523.7	1539

Oc1ccc(O)cc1 [1,4-benzenediol] + O
Details	mass density, 283.15 K [kg/m3]	mass density, 293.15 K [kg/m3]	mass density, 298.15 K [kg/m3]	mass density, 303.15 K [kg/m3]	mass density, 313.15 K [kg/m3]	speed of sound, 283.15 K [m/s]	speed of sound, 293.15 K [m/s]	speed of sound, 298.15 K [m/s]	speed of sound, 303.15 K [m/s]	speed of sound, 313.15 K [m/s]
c1 = 0.011	1000	998.494	997.334	995.934	992.505	1448.2	1482.6	1496.9	1509.3	1529
c1 = 0.0342	1000.53	999.001	997.84	996.428	992.992	1449.2	1483.3	1497.5	1509.9	1529.4
c1 = 0.0554	1001.02	999.463	998.3	996.878	993.436	1450	1483.9	1498.1	1510.3	1529.8
c1 = 0.1035	1002.11	1000.5	999.338	997.892	994.437	1451.9	1485.2	1499.3	1511.5	1530.6
c1 = 0.201	1004.28	1002.58	1001.41	999.925	996.443	1455.5	1487.6	1501.8	1513.7	1532.2
c1 = 0.2996	1006.44	1004.65	1003.48	1001.95	998.439	1458.9	1489.8	1504.1	1515.7	1533.7
c1 = 0.4022	1008.64	1006.75	1005.59	1004.02	1000.49	1462.2	1492	1506.4	1517.8	1535.2

O [water] + Oc1ccccc1O
c2 = 0
Details	mass density [kg/m3]	speed of sound [m/s]
283.15 K	999.749	–
293.15 K	998.252	–
313.15 K	992.273	1528.8
